{"source": "paper PMC7031696", "about": "(Cell chemical biology, 2019)", "tested_on": "3D7-MR4 trophozoite parasite-infected RBCs", "assay": "Metabolomic profiling (hydrophilic metabolite changes, UHPLC-MS)", "format": "cell-based, Plasmodium falciparum"}
{"smiles": "CN(C)Cc1ccc(-c2cc3c(-c4ccc(CN(C)C)cc4)ccnc3[nH]2)cc1.O=C(O)C(F)(F)F", "note": "[MMV022224]", "values": [{"measurement": "Log2(fold changes) adenosine", "setting": "metabolite adenosine, log2 fold change", "result": 0.0000}, {"measurement": "Log2(fold changes) alanine/sarcosine", "setting": "metabolite alanine/sarcosine, log2 fold change", "result": 0.0223}, {"measurement": "Log2(fold changes) anthranilate", "setting": "metabolite anthranilate, log2 fold change", "result": 0.0000}, {"measurement": "Log2(fold changes) arginine", "setting": "metabolite arginine, log2 fold change", "result": 0.0000}, {"measurement": "Log2(fold changes) asparagine", "setting": "metabolite asparagine, log2 fold change", "result": 0.2620}, {"measurement": "Log2(fold changes) aspartate", "setting": "metabolite aspartate, log2 fold change", "result": -0.0524}, {"measurement": "Log2(fold changes) biotin", "setting": "metabolite biotin, log2 fold change", "result": 0.0000}, {"measurement": "Log2(fold changes) cCMP", "setting": "metabolite cCMP, log2 fold change", "result": 0.0000}, {"measurement": "Log2(fold changes) cGMP", "setting": "metabolite cGMP, log2 fold change", "result": 0.0000}, {"measurement": "Log2(fold changes) carnitine", "setting": "metabolite carnitine, log2 fold change", "result": 0.0000}, {"measurement": "Log2(fold changes) citrate/isocitrate", "setting": "metabolite citrate/isocitrate, log2 fold change", "result": -0.2505}, {"measurement": "Log2(fold change) of coenzyme A", "setting": "metabolite coenzyme A", "result": -0.6694}, {"measurement": "Log2(fold change) of cyclic-AMP", "setting": "metabolite cyclic-AMP", "result": 0.0000}, {"measurement": "Log2(fold change) of cytidine", "setting": "metabolite cytidine", "result": 0.1493}, {"measurement": "Log2(fold change) of dAMP", "setting": "metabolite dAMP", "result": 0.0000}, {"measurement": "Log2(fold change) of dATP", "setting": "metabolite dATP", "result": -0.1042}, {"measurement": "Log2(fold change) of dCDP", "setting": "metabolite dCDP", "result": -0.6243}, {"measurement": "Log2(fold change) of dCMP", "setting": "metabolite dCMP", "result": -0.5224}, {"measurement": "Log2(fold change) of dCTP", "setting": "metabolite dCTP", "result": -0.4073}, {"measurement": "Log2(fold change) of dGDP/ADP", "setting": "metabolite dGDP/ADP", "result": -0.4184}, {"measurement": "Log2(fold change) of dGMP/AMP", "setting": "metabolite dGMP/AMP", "result": -0.2434}, {"measurement": "Log2(fold change) of dGTP/ATP", "setting": "metabolite dGTP/ATP", "result": -0.1490}, {"measurement": "Log2(fold change) of dTDP", "setting": "metabolite dTDP", "result": 0.0000}, {"measurement": "Log2(fold change) of dTMP", "setting": "metabolite dTMP", "result": -0.1539}, {"measurement": "Log2(fold change) of dTTP", "setting": "metabolite dTTP", "result": -0.2628}, {"measurement": "Log2(fold change) of dUMP", "setting": "metabolite dUMP", "result": 0.0000}, {"measurement": "Log2(fold change) of dUTP", "setting": "metabolite dUTP", "result": 0.0000}, {"measurement": "Log2(fold change) of deoxyguanosine", "setting": "metabolite deoxyguanosine", "result": 0.0000}, {"measurement": "Log2(fold change) of deoxyinosine", "setting": "metabolite deoxyinosine", "result": 0.0000}, {"measurement": "Log2(fold change) of deoxyribose-phosphate", "setting": "metabolite deoxyribose-phosphate", "result": 0.0000}, {"measurement": "Log2(fold change) of deoxyuridine", "setting": "metabolite deoxyuridine", "result": 0.0000}, {"measurement": "Log2(fold change) of dihydroorotate", "setting": "metabolite dihydroorotate", "result": 0.4231}, {"measurement": "Log2(fold change) of folate", "setting": "metabolite folate", "result": 0.2103}, {"measurement": "Log2(fold change) of fructose-1-6-bisphosphate", "setting": "metabolite fructose-1-6-bisphosphate", "result": -0.0559}, {"measurement": "Log2(fold change) of fructose-6-phosphate", "setting": "metabolite fructose-6-phosphate", "result": 0.0000}, {"measurement": "Log2(fold change) of fumarate", "setting": "metabolite fumarate", "result": -0.4743}, {"measurement": "Log2(fold change) of glucono-lactone", "setting": "metabolite glucono-lactone", "result": 0.0000}, {"measurement": "Log2(fold change) of glucose-1/6-phosphate", "setting": "metabolite glucose-1/6-phosphate", "result": 0.0000}, {"measurement": "Log2(fold change) of glutamate", "setting": "metabolite glutamate", "result": -0.2593}, {"measurement": "Log2(fold change) of glutamine", "setting": "metabolite glutamine", "result": 0.1154}, {"measurement": "Log2(fold change) of glutathione", "setting": "metabolite glutathione", "result": -0.5102}, {"measurement": "Log2(fold change) glutathione disulfide", "setting": "metabolite glutathione disulfide", "result": -0.1758}, {"measurement": "Log2(fold change) glycerate", "setting": "metabolite glycerate", "result": 0.0000}, {"measurement": "Log2(fold change) guanine", "setting": "metabolite guanine", "result": -0.4489}, {"measurement": "Log2(fold change) guanosine", "setting": "metabolite guanosine", "result": 0.0000}, {"measurement": "Log2(fold change) histidine", "setting": "metabolite histidine", "result": 0.2818}, {"measurement": "Log2(fold change) homocysteic acid", "setting": "metabolite homocysteic acid", "result": 0.0000}, {"measurement": "Log2(fold change) hydroxyphenylpyruvate", "setting": "metabolite hydroxyphenylpyruvate", "result": 0.0000}, {"measurement": "Log2(fold change) hydroxyproline/Aminolevulinate", "setting": "metabolite hydroxyproline/Aminolevulinate", "result": -0.0239}, {"measurement": "Log2(fold change) hypoxanthine", "setting": "metabolite hypoxanthine", "result": 0.0610}, {"measurement": "Log2(fold change) indole", "setting": "metabolite indole", "result": 0.8345}, {"measurement": "Log2(fold change) inosine", "setting": "metabolite inosine", "result": -0.1646}, {"measurement": "Log2(fold change) isoleucine", "setting": "metabolite isoleucine", "result": -0.1407}, {"measurement": "Log2(fold change) lactate", "setting": "metabolite lactate", "result": -0.4343}, {"measurement": "Log2(fold change) leucine", "setting": "metabolite leucine", "result": 0.0081}, {"measurement": "Log2(fold change) lysine", "setting": "metabolite lysine", "result": 0.0000}, {"measurement": "Log2(fold change) malate", "setting": "metabolite malate", "result": -0.4038}, {"measurement": "Log2(fold change) maleic acid", "setting": "metabolite maleic acid", "result": -0.3811}, {"measurement": "Log2(fold change) methionine", "setting": "metabolite methionine", "result": 0.2971}, {"measurement": "Log2(fold change) myo-inositol", "setting": "metabolite myo-inositol", "result": 0.0000}, {"measurement": "Log2(fold change) nicotinamide mononucleotide", "setting": "metabolite nicotinamide mononucleotide", "result": 0.0000}, {"measurement": "Log2(fold change) nicotinate", "setting": "metabolite nicotinate", "result": -0.4667}, {"measurement": "Log2(fold change) ornithine", "setting": "metabolite ornithine", "result": 0.0000}, {"measurement": "Log2(fold change) orotate", "setting": "metabolite orotate", "result": -0.1913}, {"measurement": "Log2(fold change) orotidine-5'-phosphate", "setting": "metabolite orotidine-5'-phosphate", "result": -0.1124}, {"measurement": "Log2(fold change) oxaloacetate", "setting": "metabolite oxaloacetate", "result": 0.0000}, {"measurement": "Log2(fold change) p-aminobenzoate", "setting": "metabolite p-aminobenzoate", "result": 0.0000}, {"measurement": "Log2(fold change) p-hydroxybenzoate", "setting": "metabolite p-hydroxybenzoate", "result": 0.0000}, {"measurement": "Log2(fold change) pantothenate", "setting": "metabolite pantothenate", "result": -0.1562}, {"measurement": "Log2(fold change) phenylalanine", "setting": "metabolite phenylalanine", "result": -0.0454}, {"measurement": "Log2(fold change) phenylpyruvate", "setting": "metabolite phenylpyruvate", "result": 0.0000}, {"measurement": "Log2(fold change) phosphoenolpyruvate", "setting": "metabolite phosphoenolpyruvate", "result": -0.1663}, {"measurement": "Log2(fold change) prephenate", "setting": "metabolite prephenate", "result": 0.0000}, {"measurement": "Log2(fold change) proline", "setting": "metabolite proline", "result": -0.1446}, {"measurement": "Log2(fold change) pyridoxine", "setting": "metabolite pyridoxine", "result": 0.0000}, {"measurement": "Log2(fold change) pyruvate", "setting": "metabolite pyruvate", "result": -0.5314}, {"measurement": "Log2(fold change) riboflavin", "setting": "metabolite riboflavin", "result": 0.4707}, {"measurement": "Log2(fold change) ribose", "setting": "metabolite ribose", "result": 0.0000}, {"measurement": "Log2(fold change) ribose-phosphate", "setting": "metabolite ribose-phosphate", "result": 0.0000}, {"measurement": "Log2(fold change) ribulose-5-phosphate", "setting": "metabolite ribulose-5-phosphate", "result": -0.0752}, {"measurement": "Log2(fold change) serine", "setting": "metabolite serine", "result": 0.2570}, {"measurement": "Log2(fold change) sn-glycerol-3-phosphate", "setting": "metabolite sn-glycerol-3-phosphate", "result": 0.2730}, {"measurement": "Log2(fold change) succinate/Methylmalonic acid", "setting": "metabolite succinate/Methylmalonic acid", "result": -0.4610}, {"measurement": "Log2(fold change) succinyl-CoA/methylmalonyl-CoA", "setting": "metabolite succinyl-CoA/methylmalonyl-CoA", "result": -0.1003}, {"measurement": "Log2(fold change) taurine", "setting": "metabolite taurine", "result": 0.0000}, {"measurement": "Log2(fold change) thiamine", "setting": "metabolite thiamine", "result": 0.0000}, {"measurement": "Log2(fold change) threonine/homoserine", "setting": "metabolite threonine/homoserine", "result": 0.2231}, {"measurement": "Log2(fold change) thymidine", "setting": "metabolite thymidine", "result": 0.0000}, {"measurement": "Log2(fold changes) thymine", "setting": "metabolite thymine, log2 fold change", "result": 0.0000}, {"measurement": "Log2(fold changes) trehalose-6-Phosphate", "setting": "metabolite trehalose-6-Phosphate, log2 fold change", "result": 0.0000}, {"measurement": "Log2(fold changes) tryptophan", "setting": "metabolite tryptophan, log2 fold change", "result": 0.5432}, {"measurement": "Log2(fold changes) tyrosine", "setting": "metabolite tyrosine, log2 fold change", "result": 0.1420}, {"measurement": "Log2(fold changes) uridine", "setting": "metabolite uridine, log2 fold change", "result": 0.0000}, {"measurement": "Log2(fold changes) valine", "setting": "metabolite valine, log2 fold change", "result": -0.1357}, {"measurement": "Log2(fold changes) xanthine", "setting": "metabolite xanthine, log2 fold change", "result": 0.0000}, {"measurement": "Log2(fold changes) xanthosine-5-phosphate", "setting": "metabolite xanthosine-5-phosphate, log2 fold change", "result": -0.1792}, {"measurement": "Log2(fold changes) xanthosine", "setting": "metabolite xanthosine, log2 fold change", "result": -1.8994}, {"measurement": "Log2(fold changes) xylose", "setting": "metabolite xylose, log2 fold change", "result": 0.0000}]}
